# From paper PMC10799935, “Discovery of a peripheral 5HT2A antagonist as a clinical candidate for metabolic dysfunction-associated steatohepatitis” (Nature Communications, 2024)
# Values joined by “and” are separate entries in the source; they are usually repeats but may differ in a detail not shown here. Equal entries are not always repeated.
# Experiments:
# [1] = system: lipogenesis-related genes; assay: DIO mice: qRT-PCR of lipogenesis-related genes in liver; format: in vivo, mouse; settings: for Fasn gene expression, Predicted (LS) mean diff. / Htr2a gene expression, Predicted (LS) mean diff. / Pparγ gene expression, Predicted (LS) mean diff. / Srebp1c gene expression, Predicted (LS) mean diff.: Tukey's multiple comparisons test; for Fasn gene expression, Predicted (LS) mean / Htr2a gene expression, Predicted (LS) mean / Pparγ gene expression, Predicted (LS) mean / Srebp1c gene expression, Predicted (LS) mean: vehicle = 1
# Method: Total RNA extractions from harvested tissues were performed using TRIzol according to the manufacturer’s protocol. After TURBO DNase (Invitrogen) treatment, 2 μg of total RNA was used to generate complementary DNA with a High-Capacity cDNA Reverse Transcription Kit (Thermo Fisher Scientific). Quantitative RT-PCR was performed with Fast SYBR Green Master Mix (Thermo Fisher Scientific) and a Viia 7 Real-time PCR System (Thermo Fisher Scientific) according to the manufacturer’s instructions. Gene expression was relatively quantified based on the delta-delta Ct (threshold cycle) method with the beta-actin gene as a reference gene. The sequence of primers can be found in the Supporting Information (Supplementary Table 2).
# [2] = system: CDAHFD-fed C57BL/6 J mice; assay: CDAHFD mice (12 weeks): body weight and clinical signs; format: in vivo, mouse; set-up: Body weight: unit: g; settings: for Body weight, Mean Diff.: Tukey; for Body weight, Mean (one-way ANOVA): mean of 13 weekly values
# Text: C57BL/6 J male mice were purchased from the Japan SLC. Inc (Hamamatsu, Japan). Mice (5 weeks old) were fed Teklad Certitied Irradiated Global 18% protein rodent diet purchased from Dooyeol Biotech Co. Ltd (Seoul, South Korea) during the acclimation period. The liver fibrosis/inflammation-induced groups were CDAHFD-fed (A06071302, Research diet). […] All animal experiments complied with the relevant ethical regulations.
# 5HT1B (h) = molecular target: T1, 5HT1B (h) (Homo sapiens, UniProt P28222); assay: 5HT subtype antagonism assay (Eurofins Cerep): 5HT1B; format: cell-based; settings: concentration not given
# T1 construct: host or cells: Hela cells
# T1 sequence (P28222 whole entry): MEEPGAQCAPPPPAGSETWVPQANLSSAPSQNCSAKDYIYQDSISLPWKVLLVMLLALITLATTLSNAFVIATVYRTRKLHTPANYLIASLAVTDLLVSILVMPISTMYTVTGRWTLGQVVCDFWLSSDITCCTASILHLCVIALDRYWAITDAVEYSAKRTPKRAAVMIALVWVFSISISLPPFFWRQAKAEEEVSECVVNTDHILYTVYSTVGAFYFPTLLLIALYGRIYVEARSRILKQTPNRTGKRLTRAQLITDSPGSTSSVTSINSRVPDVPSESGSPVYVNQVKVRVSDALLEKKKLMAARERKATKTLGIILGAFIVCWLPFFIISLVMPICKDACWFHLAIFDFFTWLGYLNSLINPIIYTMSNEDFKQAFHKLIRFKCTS
# Method: (§1) The derivatives were evaluated at a concentration of 1 μM for their antagonist activity on the 5HT2A receptor (Tables 1–3)[33],[34]. Human 5HT2A stably transfected HEK293 cells (a type of cell derived from kidney embryos)[20] were seeded in a 96-well plate (Costar; 3603) at a density of 9 × 10^4 in 100 μL of minimum essential medium (Welgene; LM007-86) containing 10% dialyzed fetal bovine serum (Gibco; 30067–334) and 1% penicillin/streptomycin (Gibco; 15140-122) and kept in a 37 °C incubator for 24 h. The cells were stained with 100 μL of cytosolic calcium dye using the FLIPR calcium 6 assay solution (Molecular devices, #R8190) supplemented with 2.5 mM probenecid (Sigma; P8761) and incubated for 1 h at 37 °C. After 1 h, the designated amount of the compound was treated in each well and incubated for another 1 h at 37 °C. Then, the cells were loaded in a Flexstation 3 microplate reader (Molecular Devices; FlexStaion) and 50 μL of 5 μM 5HT (serotonin hydrochloride, Sigma; H9523) was injected from a source plate (Nunc 96-well polystyrene conical bottom MicroWell Plate, Thermo; 249662) and the fluorescence intensity (Ex/Em-485nm/ 525 nm) was measured. […]
# (§2) Antagonism assay Source Stimulus Incubation Measured Detection Method […]
# 5HT7 (h) = molecular target: T2, 5HT7 (h) (Homo sapiens, UniProt P34969); assay: 5HT subtype antagonism assay (Eurofins Cerep): 5HT7; format: cell-based
# T2 construct: host or cells: CHO cells
# T2 sequence (P34969 whole entry): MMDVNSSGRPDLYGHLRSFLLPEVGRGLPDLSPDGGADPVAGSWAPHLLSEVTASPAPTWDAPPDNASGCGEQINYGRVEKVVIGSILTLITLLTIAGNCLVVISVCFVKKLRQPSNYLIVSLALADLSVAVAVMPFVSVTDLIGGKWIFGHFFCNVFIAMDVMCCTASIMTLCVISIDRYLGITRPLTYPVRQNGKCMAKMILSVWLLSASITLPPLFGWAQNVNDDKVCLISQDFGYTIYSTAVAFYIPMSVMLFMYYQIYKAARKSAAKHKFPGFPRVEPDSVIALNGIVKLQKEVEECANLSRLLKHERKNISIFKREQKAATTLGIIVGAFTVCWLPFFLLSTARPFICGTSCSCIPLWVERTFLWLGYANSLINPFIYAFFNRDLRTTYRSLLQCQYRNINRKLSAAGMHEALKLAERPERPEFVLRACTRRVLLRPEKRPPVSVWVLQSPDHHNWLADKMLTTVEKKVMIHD
# Method: as §1, §2
smiles,measurement,setting,value
Cc1nc2n(c(=O)c1CCN1CCC(=C3c4ccc(Cl)cc4CCc4cccnc43)CC1)CCCC2O (stereo not drawn) [Compound 11c],"Fasn gene expression, Predicted (LS) mean diff.",[1]; 11c 5mpk vs. 11c 10mpk,0.1848
same,"Htr2a gene expression, Predicted (LS) mean diff.",[1]; 11c 5mpk vs. 11c 10mpk,0.09643
same,"Pparγ gene expression, Predicted (LS) mean diff.",[1]; 11c 5mpk vs. 11c 10mpk,-0.1385
same,"Srebp1c gene expression, Predicted (LS) mean diff.",[1]; 11c 5mpk vs. 11c 10mpk,0.2716
same,"Fasn gene expression, Predicted (LS) mean",[1]; 11c 5mpk,0.7446
same,"Htr2a gene expression, Predicted (LS) mean",[1]; 11c 5mpk,0.5102
same,"Pparγ gene expression, Predicted (LS) mean",[1]; 11c 5mpk,0.8935
same,"Srebp1c gene expression, Predicted (LS) mean",[1]; 11c 5mpk,0.7676
same,"Fasn gene expression, Predicted (LS) mean",[1]; 11c 10mpk,0.5598
same,"Htr2a gene expression, Predicted (LS) mean",[1]; 11c 10mpk,0.4138
same,"Pparγ gene expression, Predicted (LS) mean",[1]; 11c 10mpk,1.032
same,"Srebp1c gene expression, Predicted (LS) mean",[1]; 11c 10mpk,0.496
same,expression of Fasn,"[1]; DIO mice, 10mpk",decreased
same,expression of Srebp1c,"[1]; DIO mice, 10mpk",reduced
same,expression of lipogenesis-related genes,"[1]; DIO mice, liver, vs vehicle",reduced
same,"Fasn gene expression, Predicted (LS) mean diff.",[1]; Vehicle vs. 11c 5mpk,0.2554
same,"Htr2a gene expression, Predicted (LS) mean diff.",[1]; Vehicle vs. 11c 5mpk,0.4898
same,"Pparγ gene expression, Predicted (LS) mean diff.",[1]; Vehicle vs. 11c 5mpk,0.1065
same,"Srebp1c gene expression, Predicted (LS) mean diff.",[1]; Vehicle vs. 11c 5mpk,0.2324
same,"Fasn gene expression, Predicted (LS) mean diff.",[1]; Vehicle vs. 11c 10mpk,0.4402
same,"Htr2a gene expression, Predicted (LS) mean diff.",[1]; Vehicle vs. 11c 10mpk,0.5862
same,"Pparγ gene expression, Predicted (LS) mean diff.",[1]; Vehicle vs. 11c 10mpk,-0.03198
same,"Srebp1c gene expression, Predicted (LS) mean diff.",[1]; Vehicle vs. 11c 10mpk,0.504
same,body weight changes among the CDAHFD groups,[2]; 12 weeks,not significantly different
same,clinical signs during the study period,"[2]; CDAHFD mice, 5 and 10 mpk PO daily, 12 weeks",no abnormal clinical signs were observed
same,"Body weight, Average","[2]; CDAHFD+11c 5mpk, week 0, 5 mice",20.6 g
same,Body weight,"[2]; CDAHFD+11c 5mpk, week 0, individual mouse, in g (unit assumed)",21.7 and 20.6 and 20.4 and 20.7 and 19.7
same,"Body weight, Average","[2]; CDAHFD+11c 5mpk, week 1, 5 mice",20.6 g
same,Body weight,"[2]; CDAHFD+11c 5mpk, week 1, individual mouse, in g (unit assumed)",21.2 and 20.8 and 20.5 and 20.7 and 19.7
same,"Body weight, Average","[2]; CDAHFD+11c 5mpk, week 2, 5 mice",20.1 g
same,"Body weight, Average","[2]; CDAHFD+11c 5mpk, week 3, 5 mice",19.9 g
same,"Body weight, Average","[2]; CDAHFD+11c 5mpk, week 4, 5 mice",20.3 g
same,"Body weight, Average","[2]; CDAHFD+11c 5mpk, week 5, 5 mice",20.5 g
same,Body weight,"[2]; CDAHFD+11c 5mpk, week 5, individual mouse, in g (unit assumed)",20.8 and 21.2 and 20.5 and 20.2 and 19.9
same,"Body weight, Average","[2]; CDAHFD+11c 5mpk, week 6, 5 mice",20.8 g
same,Body weight,"[2]; CDAHFD+11c 5mpk, week 6, individual mouse",20.9 (2×) and 21.4 and 20.7 and 20.3
same,"Body weight, Average","[2]; CDAHFD+11c 5mpk, week 7, 5 mice",21.4 g
same,Body weight,"[2]; CDAHFD+11c 5mpk, week 7, individual mouse",22.0 (2×) and 21.7 and 21.0 and 20.4
same,"Body weight, Average","[2]; CDAHFD+11c 5mpk, week 8, 5 mice",21.6 g
same,Body weight,"[2]; CDAHFD+11c 5mpk, week 8, individual mouse, in g (unit assumed)",22.3 and 22.1 and 21.9 and 21.5 and 20.3
same,"Body weight, Average","[2]; CDAHFD+11c 5mpk, week 9, 5 mice",22.1 g
same,Body weight,"[2]; CDAHFD+11c 5mpk, week 9, individual mouse",23.0 and 22.4 (2×) and 21.7 and 20.9
same,"Body weight, Average","[2]; CDAHFD+11c 5mpk, week 10, 5 mice",22.2 g
same,Body weight,"[2]; CDAHFD+11c 5mpk, week 10, individual mouse, in g (unit assumed)",23.1 and 22.5 and 22.4 and 22.3 and 20.8
same,"Body weight, Average","[2]; CDAHFD+11c 5mpk, week 11, 5 mice",22.5 g
same,Body weight,"[2]; CDAHFD+11c 5mpk, week 11, individual mouse, in g (unit assumed)",23.6 and 23.2 and 22.9 and 22.3 and 20.7
same,"Body weight, Average","[2]; CDAHFD+11c 5mpk, week 12, 5 mice",22.5 g
same,Body weight,"[2]; CDAHFD+11c 5mpk, week 12, individual mouse, in g (unit assumed)",23.4 and 23.6 and 22.5 and 22.1 and 20.9
same,"Body weight, Average","[2]; CDAHFD+11c 10mpk, week 0, 5 mice",20.6 g
same,Body weight,"[2]; CDAHFD+11c 10mpk, week 0, individual mouse",21.3 (2×) and 20.1 and 20.3 and 20.0
same,"Body weight, Average","[2]; CDAHFD+11c 10mpk, week 1, 5 mice",20.4 g
same,Body weight,"[2]; CDAHFD+11c 10mpk, week 1, individual mouse",20.1 and 19.8 and 20.3 and 20.9 (2×)
same,"Body weight, Average","[2]; CDAHFD+11c 10mpk, week 2, 5 mice",20.3 g
same,"Body weight, Average","[2]; CDAHFD+11c 10mpk, week 3, 5 mice",20.3 g
same,"Body weight, Average","[2]; CDAHFD+11c 10mpk, week 4, 5 mice",20.5 g
same,"Body weight, Average","[2]; CDAHFD+11c 10mpk, week 5, 5 mice",20.9 g
same,Body weight,"[2]; CDAHFD+11c 10mpk, week 5, individual mouse",20.9 (2×) and 20.6 and 22.0 and 20.3
same,"Body weight, Average","[2]; CDAHFD+11c 10mpk, week 6, 5 mice",21.2 g
same,Body weight,"[2]; CDAHFD+11c 10mpk, week 6, individual mouse, in g (unit assumed)",21.4 and 20.9 and 22.2 and 20.8 and 20.5
same,"Body weight, Average","[2]; CDAHFD+11c 10mpk, week 7, 5 mice",21.5 g
same,Body weight,"[2]; CDAHFD+11c 10mpk, week 7, individual mouse, in g (unit assumed)",21.9 and 21.0 and 22.3 and 21.1 and 21.2
same,"Body weight, Average","[2]; CDAHFD+11c 10mpk, week 8, 5 mice",21.8 g
same,Body weight,"[2]; CDAHFD+11c 10mpk, week 8, individual mouse",22.0 and 21.2 and 23.0 and 21.4 (2×)
same,"Body weight, Average","[2]; CDAHFD+11c 10mpk, week 9, 5 mice",21.8 g
same,Body weight,"[2]; CDAHFD+11c 10mpk, week 9, individual mouse, in g (unit assumed)",22.6 and 21.2 and 22.8 and 21.5 and 21.1
same,"Body weight, Average","[2]; CDAHFD+11c 10mpk, week 10, 5 mice",22 g
same,Body weight,"[2]; CDAHFD+11c 10mpk, week 10, individual mouse, in g (unit assumed)",22.4 and 21.7 and 23.1 and 21.6 and 21.4
same,"Body weight, Average","[2]; CDAHFD+11c 10mpk, week 11, 5 mice",22.4 g
same,Body weight,"[2]; CDAHFD+11c 10mpk, week 11, individual mouse",22.7 and 22.1 (2×) and 23.5 and 21.8
same,"Body weight, Average","[2]; CDAHFD+11c 10mpk, week 12, 5 mice",22.5 g
same,Body weight,"[2]; CDAHFD+11c 10mpk, week 12, individual mouse",22.9 and 22.3 (2×) and 23.3 and 21.6
same,"Body weight, Mean Diff.","[2]; Column A (Vehicle, no CDAHFD) vs. Column C (11c 5mpk), in g (unit assumed)",3.52
same,"Body weight, Mean Diff.","[2]; Column A (Vehicle, no CDAHFD) vs. Column D (11c 10mpk), in g (unit assumed)",3.44
same,"Body weight, Mean Diff.","[2]; Column B (CDAHFD+vehicle) vs. Column C (11c 5mpk), in g (unit assumed)",0.1462
same,"Body weight, Mean Diff.","[2]; Column B (CDAHFD+vehicle) vs. Column D (11c 10mpk), in g (unit assumed)",0.06615
same,"Body weight, Mean Diff.",[2]; Column C (11c 5mpk) vs. Column D (11c 10mpk),-0.08
same,"Body weight, Mean (one-way ANOVA)","[2]; Column C (CDAHFD+11c 5mpk), in g (unit assumed)",21.17
same,"Body weight, Mean (one-way ANOVA)","[2]; Column D (CDAHFD+11c 10mpk), in g (unit assumed)",21.25
same,Selectivity 1B: % inhibition,5HT1B (h),16%
same,Selectivity 7: % inhibition,5HT7 (h); concentration not given,91%
same,IC50,5HT7 (h); read-out: Selectivity 7: IC50,100 nM
